# Test results from patent US11639493B2, “Consortium of bacteria that mineralises lipids, starches and sugars (carbohydrates) and are resistant to lethal doses of thiodicarb (carbamate) and bifenthrin (pyrethroid) for inoculation into organic matter of different origins” (priority 2018, dated 2023).
# Columns and labels:
# Type in all cases: cell-based
# Bacillus brevis = assay: Adaptation stages: mortality of Bacillus brevis on growth media with thiodicarb or bifenthrin
# Procedure: (§1) Bacteria strains, nitrifiers, phosphorus solubilizers and antagonists for pathogens: • a) Arthrobacter globiformis • b) Bacillus megaterium • c) Bacillus brevis • d) Bacillus thuringiensis Preparation for Stage Development • 1. Glass material is sterilized in an autoclave. • 2. The required amount of growth media is prepared, DFA Agar, Malt Agar (Corn Agar) and (PDA) to obtain viable colonies. • 3. Lethal dose (LD) applied to a hectare is established, for thiodicarb as well as bifenthrin. 10 Petri dishes are prepared with 0.1 LD of thiodicarb of bifenthrin. Dishes are incubated at 25° C. for 72 hours with cold light. Methodology • a. Physical and chemical variables obtained in the research are maintained using traces. Petri dishes are placed inside the laminar flow chamber along with the diluted samples, to seed microorganisms in the dishes, a one ml sample of the strain is taken with an automated pipette, 10^−1 and 10^−2 solutions are performed and each solution is homogenized. • b. Having the petri dishes with the sterile and cold growth media, it is homogenized with 6 right to left movements, 6 clockwise movements, 6 counterclockwise movements and 6 front to back movements over a flat horizontal surface until the inoculum is completely integrated into the media, stand until it solidifies and each dish is covered with parafilm to avoid contamination during incubation. • c. The adapted consortium conditions are kept for the starting media (habitat), humidity, pH, temperature, chemical traceability, lighting and airing, Gram colorations and malachite green for the differentiation and observation of cellular structures. • d. Dishes with thiodicarb and Bifenthrin are placed inside the incubator at 25° C. for 72 hours with a cold light lamp. • e. Inoculated dishes are incubated for 72 hours and the bacteria growth will be recorded, the product concentration impact is determined over the plate growth (12 hours of incubation). • f. The residual impact of the product is reviewed after 7 days in the malt agar and PDA agar media. • g. If there is no growth over 10%, the process is repeated until a mortality under 90% is obtained. • h. The colony diameter is determined using a graduated ruler, data is recorded subtracting the diameter of the seeded dish, from which the effect over the mycelial growth will be determined compared to the control (not poisoned MA, denominated as percentage of inhibition of radial growth (PIRG %). • i. Progress is recorded daily and after 7 days analysis of an acceptable coverage is performed, if not, the procedure is repeated as many times as required. • j. From the 10 Petri dishes for each microorganism, the one with the lowest mortality is the one that will continue with the following study. • k. The study is performed again using this percentage until coverage increases and so on, the addition of thiodicarb and bifenthrin is alternated with the LD in intervals of 0.1 LD; all these experiments have been designed with the experimental strains and a control. • l. With the data obtained from the bacterial growth, the percentage of inhibition of gradual growth is obtained, the data is transformed for its analysis with the expression 2 arc sin. A two-way classification analysis of variance is applied and later the Turkey test is performed using a 5% probability.
# (§2) Characteristics for this procedure were recorded during all stages through the following indicators: • a. Growth speed • b. Percentage of inhibition measured in Number of CFU/mm • c. Percentage of poison resistance
# Beginning with habitat conditions obtained in the adaptation to organophosphate, organochlorine compounds and mercury from the microorganisms at the E-38 pH: 7.2, Humidity: 36%, thermoresistant and facultative anaerobic. These conditions are the starting point to adapt the strain to thiodicarb and bifenthrin.
# To adapt this microorganism, 51 stages were performed, beginning the process with the conventional growth media. […]
# Arthrobacter globiformis = assay: Adaptation stages: mortality of Arthrobacter globiformis on growth media with thiodicarb or bifenthrin
# Procedure: as §1, §2
# Habitat conditions are maintained, conditions obtained during the adaptation to organophosphorus and organochlorinated compounds and mercury of the microorganism, pH: 7.0, humidity: 35%, Temperature: Thermoresistant. These conditions are the starting point to adapt the strain to the new pollutants: thiodicarb (carbamate) and bifenthrin (pyrethroid). […]
# Bacillus thuringiensis = assay: Adaptation stages: mortality of Bacillus thuringiensis on growth media with thiodicarb or bifenthrin
# Procedure: as §1, §2
# Beginning with habitat conditions obtained in the adaptation to organophosphate, organochlorine compounds and mercury from the microorganisms at the E-38 pH: 7.2, Humidity: 52%, thermoresistant (74° C.), […] and facultative anaerobic. These conditions are the starting point to adapt the strain to thiodicarb and bifenthrin. During all stages a cold light lamp will be used to adapt the microorganism to sunlight. […]
# Bacillus subtillis = assay: Adaptation stages: mortality of Bacillus subtillis on growth media with thiodicarb or bifenthrin
# [1] = stage E-1, 0.1 LD (0.0000175 gr), until day 68 of incubation
# [2] = stage E-2, 0.1 LD (0.0000175 gr)
# [3] = stages E-3 and E-4, 0.2 LD (0.000035 gr)
# [4] = stages E-9 and E-10, 0.3 LD (0.000053 gr)
# [5] = stages E-11 and E-12, 0.4 LD (0.000070 gr)
# [6] = stages E-15 and E-16, 0.4 LD (0.00000024 gr)
# [7] = stages E-17 and E-18, 0.5 LD (0.000087 gr)
# [8] = stages E-19 and E-20, 0.6 LD (0.00011 gr)
# [9] = stages E-23 and E-24, 0.6 LD (0.00000036 gr)
# [10] = stages E-25 and E-26, 0.7 LD (0.00012 gr)
# [11] = stages E-27 and E-28, 0.8 LD (0.00014 gr)
# [12] = stages E-31 and E-32, 0.8 LD (0.00000042 gr)
# [13] = stages E-33 and E-34, 0.9 LD (0.00016 gr)
# [14] = stages E-35 and E-36, 1 LD (0.00018 gr)
# [15] = stages E-39 and E-40, 1 LD (0.00000048 gr)
# [16] = stages E-41 and E-42, 1.1 LD (0.00020 gr)
# [17] = stages E-43 and E-44, 1.2 LD (0.00022 gr), both stages
# [18] = stages E-47 and E-48, 1.2 LD (0.00000060 gr)
compound,measurement,setting,value
CS/C(C)=N\OC(=O)N(C)SN(C)C(=O)O/N=C(\C)SC [thiodicarb],Resistant to: FINAL,Bacillus brevis; Bacillus brevis at the end of the adaptation process,1.3 LD of
same,mortality,Bacillus brevis; [1],82%
same,mortality,Bacillus brevis; [2],78%
same,mortality,Bacillus brevis; [3],72%
same,mortality,Bacillus brevis; [4],68%
same,mortality,Bacillus brevis; [5],67%
same,mortality,Bacillus brevis; [6],60%
same,mortality,Bacillus brevis; [7],59 to 54%
same,mortality,Bacillus brevis; [8],55%
same,mortality,Bacillus brevis; [9],51%
same,mortality,Bacillus brevis; [10],50%
same,mortality,Bacillus brevis; [11],46%
same,mortality,Bacillus brevis; [12],42%
same,mortality,Bacillus brevis; [13],38%
same,mortality,Bacillus brevis; [14],28%
same,mortality,Bacillus brevis; [15],20%
same,mortality,Bacillus brevis; [16],28%
same,mortality,Bacillus brevis; [17],22%
same,mortality,Bacillus brevis; [18],12%
same,mortality,"Bacillus brevis; stages E-49 and E-50, 1.3 LD (0.00024 gr)",10%
same,mortality,"Arthrobacter globiformis; stages E-1 and E-2, 0.1 LD (0.0000175 gr) in growth media, until incubation day 45",86%
same,mortality,Arthrobacter globiformis; [3],66 to 80%
same,mortality,Arthrobacter globiformis; [4],74%
same,mortality,Arthrobacter globiformis; [5],71%
same,mortality,Arthrobacter globiformis; [6],62%
same,mortality,Arthrobacter globiformis; [7],63%
same,mortality,Arthrobacter globiformis; [8],58%
same,mortality,Arthrobacter globiformis; [9],48%
same,mortality,Arthrobacter globiformis; [10],48%
same,mortality,Arthrobacter globiformis; [11],40%
same,mortality,Arthrobacter globiformis; [12],36%
same,mortality,Arthrobacter globiformis; [13],32%
same,mortality,Arthrobacter globiformis; [14],25%
same,mortality,Arthrobacter globiformis; [15],18%
same,initial mortality,Arthrobacter globiformis; summary of the adaptation tests with increasing concentrations of thiodicarb and bifenthrin,~82%
same,Resistant to: FINAL,Bacillus thuringiensis; B. Thuringiensis at the end of the adaptation process,1.2 LD of
same,mortality,"Bacillus thuringiensis; stages E-1 and E-2, 0.1 LD (0.0000175 gr), until day 45 of incubation",72 to 70%
same,mortality,Bacillus thuringiensis; [3],70 to 68%
same,mortality,Bacillus thuringiensis; [4],65 to 61%
same,mortality,Bacillus thuringiensis; [5],57 to 55%
same,mortality,Bacillus thuringiensis; [6],52 to 50%
same,mortality,Bacillus thuringiensis; [7],52 to 50%
same,mortality,Bacillus thuringiensis; [8],50 to 45%
same,mortality,Bacillus thuringiensis; [9],44 to 42%
same,mortality,Bacillus thuringiensis; [10],44 to 40%
same,mortality,Bacillus thuringiensis; [11],36 to 35%
same,mortality,Bacillus thuringiensis; [12],30 to 28%
same,mortality,Bacillus thuringiensis; [13],30%
same,mortality,Bacillus thuringiensis; [14],25%
same,mortality,Bacillus thuringiensis; [15],18 to 17%
same,mortality,Bacillus thuringiensis; [16],18 to 17%
same,mortality,Bacillus thuringiensis; [17],14%
same,mortality,Bacillus thuringiensis; [18],10 to 7%
same,Resistant to: FINAL,Bacillus subtillis; Bacillus subtillis at the end of the adaptation process,1 LD of
same,mortality,Bacillus subtillis; [1],82%
same,mortality,Bacillus subtillis; [2],80%
same,mortality,Bacillus subtillis; [3],75 to 72%
same,mortality,Bacillus subtillis; [4],66 to 63%
same,mortality,Bacillus subtillis; [5],64 to 62%
same,mortality,Bacillus subtillis; [6],64 to 60%
same,mortality,Bacillus subtillis; [7],59 to 54%
same,mortality,Bacillus subtillis; [8],52 to 50%
same,mortality,Bacillus subtillis; [9],40 to 35%
same,mortality,Bacillus subtillis; [10],35 to 30%
same,mortality,Bacillus subtillis; [11],28 to 25%
same,mortality,Bacillus subtillis; [12],20 to 18%
same,mortality,Bacillus subtillis; [13],18 to 15%
same,mortality,Bacillus subtillis; [14],12 to 9%
same,mortality,Bacillus subtillis; [15],5%
